{"source": "ChEMBL document CHEMBL6177955", "about": "“Design, synthesis and biological evaluation of Golgi-targeting anion transporters as inducers of Golgiphagy and apoptosis in cancer cells” (Eur J Med Chem, 2025)", "key": {"HepG2 [1]": {"tested_on": "HepG2", "assay": "Antitumor activity against human HepG2 cells xenografted mouse model assessed as reduction in tumor growth inhibition at 1 mg/kg, ip administered once every 2 days for 21 days relative to control", "assay_type": "functional", "details": "HepG2, 504 h, time 21 day, read-out: TGI"}, "HepG2 [2]": {"tested_on": "HepG2", "assay": "Induction of apoptosis in human HepG2 cells assessed as reduction in Golgi-associated apoptotic proteins (GAAPs) expression measured after 24 hrs by Western blot analysis", "assay_type": "functional, cell-based"}, "Lipid bilayer [3]": {"tested_on": "Lipid bilayer", "assay": "Vesicular anionophoric activity in large unilamellar vesicle membrane derived from egg-yolk L-alpha-phosphatidylcholine assessed as induction of relative efflux of chloride ions in presence of sodium (Na+) measured up to 300 seconds by using chloride-selective electrode", "details": "time <= 300.0 sec"}, "HepG2 [4]": {"tested_on": "HepG2", "assay": "Induction of apoptosis in human HepG2 cells assessed as viable cells at 20 uM measured after 24 hrs incubation by Propidium iodide/Annexin V-FITC analysis (reference value: 90.2%)", "assay_type": "functional", "details": "read-out: Activity"}, "[5]": {"assay": "Toxicity in mouse xenografted with human HepG2 cells assessed as aspartate aminotransferase (AST) at 5 to 10 mg/kg, ip administered once every 2 days for 21 days", "assay_type": "organism-based", "details": "in vivo, 504 h, dose 5-10 mg/kg, time 21 day"}, "HepG2 [6]": {"tested_on": "HepG2", "assay": "Cytotoxicity against human HepG2 cells assessed as cell viability at 1 to 20 uM measured after 24 hrs incubation in presence of chloride anions", "assay_type": "functional, cell-based", "details": "dose 1-20 µM"}, "HT-29": {"tested_on": "HT-29", "assay": "Antiproliferative activity against human HT-29 cells by MTT assay", "assay_type": "functional, cell-based"}, "HepG2 [7]": {"tested_on": "HepG2", "assay": "Suppression of Golgi structural and functional protein expression in human HepG2 cells assessed as decrease in GM130 protein expression at 5 to 20 uM measured after 48 hrs incubation by Western blot analysis", "assay_type": "cell-based", "details": "dose 5-20 µM"}, "HepG2 [8]": {"tested_on": "HepG2", "assay": "Cell cycle arrest in human HepG2 cells assessed as accumulation of cells at G2/M phase at 10 uM measured after 24 hrs incubation by flow cytometric analysis", "assay_type": "functional"}, "HepG2 [9]": {"tested_on": "HepG2", "assay": "Cell cycle arrest in human HepG2 cells assessed as accumulation of cells at G2/M phase at 20 uM measured after 24 hrs incubation by flow cytometric analysis", "assay_type": "functional"}, "Lipid bilayer [10]": {"tested_on": "Lipid bilayer", "assay": "Vesicular anionophoric activity in Bulky nitrobenzene membrane assessed as induction of relative efflux of chloride ions measured up to 100 hrs by using chloride-selective electrode"}, "Lipid bilayer [11]": {"tested_on": "Lipid bilayer", "assay": "Vesicular anionophoric activity in large unilamellar vesicle membrane derived from egg-yolk L-alpha-phosphatidylcholine assessed as induction of relative efflux of chloride ions in presence of lithium (Li+) measured up to 300 seconds by using chloride-selective electrode", "details": "time <= 300.0 sec"}, "HCT-8": {"tested_on": "HCT-8", "assay": "Antiproliferative activity against human HCT-8 cells by MTT assay", "assay_type": "functional, cell-based"}, "[12]": {"assay": "Toxicity in mouse xenografted with human HepG2 cells assessed as alanine aminotransferase (ALT) in serum at 5 to 10 mg/kg, ip administered once every 2 days for 21 days", "assay_type": "organism-based", "details": "in vivo, 504 h, dose 5-10 mg/kg, time 21 day"}, "HepG2 [13]": {"tested_on": "HepG2", "assay": "Induction of apoptosis in human HepG2 cells assessed as early apoptotic cells at 20 uM measured after 24 hrs incubation by Propidium iodide/Annexin V-FITC analysis (reference value: 2.90%)", "assay_type": "functional"}, "HepG2 [14]": {"tested_on": "HepG2", "assay": "Antitumor activity against human HepG2 cells xenografted mouse model assessed as reduction GRASP55 expression in tumor tissue at 5 to 10 mg/kg, ip administered once every 2 days for 21 days", "assay_type": "functional, organism-based", "details": "dose 5-10 mg/kg, time 21.0 day"}, "HepG2 [15]": {"tested_on": "HepG2", "assay": "Induction of Golgi apparatus disruption in human HepG2 cells at 5 to 10 uM measured after 24 hrs by TEM imaging analysis", "assay_type": "functional, cell-based", "details": "dose 5-10 µM"}, "HepG2 [16]": {"tested_on": "HepG2", "assay": "Induction of autophagosome formation in human HepG2 cells assessed as green fluorescence in Golgi apparatus by measuring pearson co-localization at 10 uM measured after 12 hrs incubation by mCherry-LC3B assay", "assay_type": "functional"}, "HepG2 [17]": {"tested_on": "HepG2", "assay": "Induction of apoptosis in human HepG2 cells assessed as late apoptotic cells at 5 uM measured after 24 hrs incubation by Propidium iodide/Annexin V-FITC analysis (reference value: 5.71%)", "assay_type": "functional"}, "HepG2 [18]": {"tested_on": "HepG2", "assay": "Antitumor activity against human HepG2 cells xenografted mouse model assessed as reduction in tumor weight at 5 to 10 mg/kg, ip administered once every 2 days for 21 days", "assay_type": "functional, organism-based", "details": "dose 5-10 mg/kg, time 21.0 day"}, "Lipid bilayer [19]": {"tested_on": "Lipid bilayer", "assay": "Vesicular anionophoric activity in large unilamellar vesicle membrane derived from egg-yolk L-alpha-phosphatidylcholine assessed as induction of relative efflux of chloride ions in presence of rubidium (Rb+) measured up to 300 seconds by using chloride-selective electrode", "details": "time <= 300.0 sec"}, "HepG2 [20]": {"tested_on": "HepG2", "assay": "Induction of apoptosis in human HepG2 cells assessed as viable cells at 5 uM measured after 24 hrs incubation by Propidium iodide/Annexin V-FITC analysis (reference value: 90.2%)", "assay_type": "functional", "details": "read-out: Activity"}, "HepG2 [21]": {"tested_on": "HepG2", "assay": "Induction of apoptosis in human HepG2 cells assessed as early apoptotic cells at 10 uM measured after 24 hrs incubation by Propidium iodide/Annexin V-FITC analysis (reference value: 2.90%)", "assay_type": "functional"}, "HepG2 [22]": {"tested_on": "HepG2", "assay": "Antiproliferative activity against human HepG2 cells by MTT assay", "assay_type": "functional, cell-based"}, "HepG2 [23]": {"tested_on": "HepG2", "assay": "Cell cycle arrest in human HepG2 cells assessed as accumulation of cells at G2/M phase at 5 uM measured after 24 hrs incubation by flow cytometric analysis", "assay_type": "functional"}, "HepG2 [24]": {"tested_on": "HepG2", "assay": "Antitumor activity against human HepG2 cells xenografted mouse model assessed as reduction GM130 expression in tumor tissue at 5 to 10 mg/kg, ip administered once every 2 days for 21 days", "assay_type": "functional, organism-based", "details": "dose 5-10 mg/kg, time 21.0 day"}, "HepG2 [25]": {"tested_on": "HepG2", "assay": "Suppression of Golgi structural and functional protein expression in human HepG2 cells assessed as decrease in GRASP55 protein expression at 5 to 20 uM measured after 48 hrs incubation by Western blot analysis", "assay_type": "cell-based", "details": "dose 5-20 µM"}, "MCF7": {"tested_on": "MCF7", "assay": "Antiproliferative activity against human MCF7 cells by MTT assay", "assay_type": "functional, cell-based"}, "[26]": {"assay": "Toxicity in mouse xenografted with human HepG2 cells assessed as creatine kinase (CK) at 5 to 10 mg/kg, ip administered once every 2 days for 21 days", "assay_type": "organism-based", "details": "in vivo, 504 h, dose 5-10 mg/kg, time 21 day"}, "HepG2 [27]": {"tested_on": "HepG2", "assay": "Antitumor activity against human HepG2 cells xenografted mouse model assessed as reduction in tumor growth inhibition at 10 mg/kg, ip administered once every 2 days for 21 days relative to control", "assay_type": "functional", "details": "HepG2, 504 h, time 21 day, read-out: TGI"}, "HepG2 [28]": {"tested_on": "HepG2", "assay": "Induction of autophagosome formation in human HepG2 cells assessed as green fluorescence in endoplasmic reticulum (ER) by measuring pearson co-localization at 10 uM measured after 12 hrs incubation by mCherry-LC3B assay", "assay_type": "functional"}, "HepG2 [29]": {"tested_on": "HepG2", "assay": "Induction of apoptosis in human HepG2 cells assessed as necrotic cells at 10 uM measured after 24 hrs incubation by Propidium iodide/Annexin V-FITC analysis (reference value: 1.14%)", "assay_type": "functional"}, "[30]": {"assay": "Toxicity in mouse xenografted with human HepG2 cells assessed as lactate dehydrogenase (LDH) at 5 to 10 mg/kg, ip administered once every 2 days for 21 days", "assay_type": "organism-based", "details": "in vivo, 504 h, dose 5-10 mg/kg, time 21 day"}, "[31]": {"assay": "Toxicity in mouse xenografted with human HepG2 cells assessed as histopathological changes in kidney at 5 to 10 mg/kg, ip administered once every 2 days for 21 days by H and E staining based analysis", "assay_type": "organism-based", "details": "in vivo, 504 h, dose 5-10 mg/kg, time 21 day"}, "HepG2 [32]": {"tested_on": "HepG2", "assay": "Antitumor activity against human HepG2 cells xenografted mouse model assessed as reduction in tumor growth inhibition at 5 mg/kg, ip administered once every 2 days for 21 days relative to control", "assay_type": "functional", "details": "HepG2, 504 h, time 21 day, read-out: TGI"}, "[33]": {"assay": "Toxicity in mouse xenografted with human HepG2 cells assessed as histopathological changes in lung at 5 to 10 mg/kg, ip administered once every 2 days for 21 days by H and E staining based analysis", "assay_type": "organism-based", "details": "in vivo, 504 h, dose 5-10 mg/kg, time 21 day"}}, "note": "Active and inactive are the calls of the source. No cut-off for these calls is given here.", "data": [{"smiles": "NS(=O)(=O)c1ccc(NC(=O)CCCCCNc2c(Nc3cc(C(F)(F)F)cc(C(F)(F)F)c3)c(=O)c2=O)cc1", "values": [{"measurement": "inhibition in vivo at 1 mg/kg", "setting": "HepG2 [1]", "value": 41, "unit": "%"}, {"measurement": "Activity", "setting": "HepG2 [2]", "value": "Dose-dependent-effect"}, {"measurement": "Activity", "setting": "Lipid bilayer [3]", "value": "Active"}, {"measurement": "viability at 20 µM", "setting": "HepG2 [4]", "value": 22.1, "unit": "%"}, {"measurement": "Activity", "setting": "[5]", "value": "Non-toxic"}, {"measurement": "Activity", "setting": "HepG2 [6]", "value": "Active; Cytotoxicity Enhanced In Presence Of Chloride Anions"}, {"measurement": "IC50", "setting": "HT-29", "value": "> 50", "unit": "µM"}, {"measurement": "Activity", "setting": "HepG2 [7]", "value": "Active"}, {"measurement": "Activity", "setting": "HepG2 [8]", "value": 17.16, "unit": "%"}, {"measurement": "Activity", "setting": "HepG2 [9]", "value": 44.07, "unit": "%"}, {"measurement": "Activity", "setting": "Lipid bilayer [10]", "value": "Active; Compound Exhibit Anion Transport Activity Most Probably Through Carrier Mechanism"}, {"measurement": "Activity", "setting": "Lipid bilayer [11]", "value": "Active"}, {"measurement": "IC50", "setting": "HCT-8", "value": "> 50", "unit": "µM"}, {"measurement": "Activity", "setting": "[12]", "value": "Non-toxic"}, {"measurement": "Activity", "setting": "HepG2 [13]", "value": 34.2, "unit": "%"}, {"measurement": "Activity", "setting": "HepG2 [14]", "value": "Active"}, {"measurement": "Activity", "setting": "HepG2 [15]", "value": "Active"}, {"measurement": "Activity", "setting": "HepG2 [16]", "value": 0.83}, {"measurement": "Activity", "setting": "HepG2 [17]", "value": 12.9, "unit": "%"}, {"measurement": "Activity", "setting": "HepG2 [18]", "value": "Active"}, {"measurement": "Activity", "setting": "Lipid bilayer [19]", "value": "Active"}, {"measurement": "viability at 5 µM", "setting": "HepG2 [20]", "value": 73.5, "unit": "%"}, {"measurement": "Activity", "setting": "HepG2 [21]", "value": 20.2, "unit": "%"}, {"measurement": "IC50", "setting": "HepG2 [22]", "value": 7.13, "unit": "µM"}, {"measurement": "Activity", "setting": "HepG2 [23]", "value": 6.95, "unit": "%"}, {"measurement": "Activity", "setting": "HepG2 [24]", "value": "Active"}, {"measurement": "Activity", "setting": "HepG2 [25]", "value": "Active"}, {"measurement": "IC50", "setting": "MCF7", "value": 12.7, "unit": "µM"}, {"measurement": "Activity", "setting": "[26]", "value": "Non-toxic"}, {"measurement": "inhibition in vivo at 10 mg/kg", "setting": "HepG2 [27]", "value": 77, "unit": "%"}, {"measurement": "Activity", "setting": "HepG2 [28]", "value": 0.13}, {"measurement": "Activity", "setting": "HepG2 [29]", "value": 5.17, "unit": "%"}, {"measurement": "Activity", "setting": "[30]", "value": "Non-toxic"}, {"measurement": "Activity", "setting": "[31]", "value": "Non-toxic"}, {"measurement": "inhibition in vivo at 5 mg/kg", "setting": "HepG2 [32]", "value": 62, "unit": "%"}, {"measurement": "Activity", "setting": "[33]", "value": "Non-toxic"}]}]}
